Experimental data from patent US9505768B2, “Compositions and methods for modulating TLR4” (The Regents of the University of California, priority 2012, dated 2016).

How the values were obtained:
Assay type in all cases: cell-based
human TLR4 = biological target: T1, human TLR4 (Homo sapiens, UniProt O00206+Q9Y6Y9); experiment: Human TLR4 HEK Blue NFκB/SEAP reporter assay; details: hTLR4 HEK293 transfectoma; all compounds tested at 10 μM; Cmpd 1 set at 100
T1 construct: host or cells: HEK293 (HEK Blue) cells with NFκB/SEAP reporter
T1 sequence (O00206 24-839): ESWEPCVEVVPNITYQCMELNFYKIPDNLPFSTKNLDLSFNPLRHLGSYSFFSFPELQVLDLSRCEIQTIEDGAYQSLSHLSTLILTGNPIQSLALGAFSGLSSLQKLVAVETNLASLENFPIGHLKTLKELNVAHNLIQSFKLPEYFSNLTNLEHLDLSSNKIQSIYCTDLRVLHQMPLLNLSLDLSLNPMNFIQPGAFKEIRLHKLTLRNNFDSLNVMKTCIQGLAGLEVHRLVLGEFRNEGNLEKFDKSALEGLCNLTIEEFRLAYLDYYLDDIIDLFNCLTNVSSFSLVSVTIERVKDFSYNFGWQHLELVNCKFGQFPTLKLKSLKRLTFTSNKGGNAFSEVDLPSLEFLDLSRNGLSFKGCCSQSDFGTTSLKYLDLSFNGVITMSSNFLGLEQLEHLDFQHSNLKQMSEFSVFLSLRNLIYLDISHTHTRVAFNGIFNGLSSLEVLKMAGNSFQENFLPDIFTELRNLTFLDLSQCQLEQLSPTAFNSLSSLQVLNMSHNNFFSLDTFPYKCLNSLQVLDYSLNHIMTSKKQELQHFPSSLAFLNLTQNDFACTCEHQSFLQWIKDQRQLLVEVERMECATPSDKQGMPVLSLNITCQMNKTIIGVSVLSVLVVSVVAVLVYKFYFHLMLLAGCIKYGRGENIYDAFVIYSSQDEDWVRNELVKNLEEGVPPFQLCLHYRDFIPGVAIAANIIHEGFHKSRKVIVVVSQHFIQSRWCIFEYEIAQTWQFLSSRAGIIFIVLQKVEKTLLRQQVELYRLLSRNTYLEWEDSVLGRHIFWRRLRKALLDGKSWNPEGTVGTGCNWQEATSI
T1 sequence (Q9Y6Y9 19-160): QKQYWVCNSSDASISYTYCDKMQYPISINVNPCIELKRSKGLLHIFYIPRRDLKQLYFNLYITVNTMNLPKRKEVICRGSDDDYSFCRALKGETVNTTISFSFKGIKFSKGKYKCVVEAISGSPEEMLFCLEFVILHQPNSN
Method: (§1) The above assays were utilized to compare the derivatives of the lead pyrimidoindole for their ability to activate mouse and human TLR4. […] Each cytokine induction curve was first converted to a percent activity curve, and then the AUC of the percent activity curve was calculated. The process of converting to a percent activity curve allowed subtracting background and adjusting for plate-to-plate variation.
(§2) The culture supernatants were harvested after a 20-24 h incubation period. SEAP activity in the supernatants was determined by a colorimetric assay, using either the SEAPorter Assay Kit (Imgenex), with absorbance read at 405 nm, or QuantiBlue (Invivogen), with absorbance read at 630 nm.

mouse TLR4 = biological target: T2, mouse TLR4 (Mus musculus, UniProt Q9JHF9+Q9QUK6); experiment: Murine TLR4 HEK Blue NFκB/SEAP reporter assay; details: mTLR4 HEK transfectoma, 312 nM to 10 μM; Cmpd 1 set at 100
T2 construct: host or cells: HEK293 (HEK Blue) cells with NFκB/SEAP reporter
T2 sequence (Q9QUK6 26-835): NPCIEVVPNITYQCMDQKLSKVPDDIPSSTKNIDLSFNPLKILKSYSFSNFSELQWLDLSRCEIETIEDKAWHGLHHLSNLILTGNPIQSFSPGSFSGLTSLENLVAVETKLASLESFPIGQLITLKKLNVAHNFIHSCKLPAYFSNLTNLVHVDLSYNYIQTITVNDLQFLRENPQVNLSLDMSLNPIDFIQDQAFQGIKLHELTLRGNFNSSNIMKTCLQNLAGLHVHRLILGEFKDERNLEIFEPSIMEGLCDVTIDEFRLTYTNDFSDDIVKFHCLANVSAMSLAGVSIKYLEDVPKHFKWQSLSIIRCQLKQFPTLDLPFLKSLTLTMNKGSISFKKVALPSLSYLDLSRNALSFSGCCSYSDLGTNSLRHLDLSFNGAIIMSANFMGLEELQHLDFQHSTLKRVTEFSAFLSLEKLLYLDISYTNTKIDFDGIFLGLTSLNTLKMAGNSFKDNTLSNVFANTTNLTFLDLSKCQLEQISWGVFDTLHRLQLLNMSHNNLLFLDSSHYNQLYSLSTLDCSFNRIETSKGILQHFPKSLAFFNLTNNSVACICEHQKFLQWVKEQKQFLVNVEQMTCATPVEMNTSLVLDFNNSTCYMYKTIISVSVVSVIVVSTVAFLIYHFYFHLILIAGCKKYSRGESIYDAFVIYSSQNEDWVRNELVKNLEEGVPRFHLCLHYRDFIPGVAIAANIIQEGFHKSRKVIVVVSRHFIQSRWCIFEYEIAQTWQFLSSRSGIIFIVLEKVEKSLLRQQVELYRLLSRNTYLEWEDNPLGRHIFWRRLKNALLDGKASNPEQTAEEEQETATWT
T2 sequence (Q9JHF9 19-160): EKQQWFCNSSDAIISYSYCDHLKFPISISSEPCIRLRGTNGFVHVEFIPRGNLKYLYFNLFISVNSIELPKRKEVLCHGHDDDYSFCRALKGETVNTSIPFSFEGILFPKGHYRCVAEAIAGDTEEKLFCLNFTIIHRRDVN
Method: as §1, §2

[1] = test system: mouse bone marrow derived dendritic cells (mBMDC); experiment: IL-6 induction in mouse bone marrow derived dendritic cells (ELISA); details: relative to Cmpd 1 / within series
Method: as §1
BMDC were prepared from C57BL/6 mice as described. See e.g., Wu, C. […] BMDC (10^5 cells per well) were plated in 96-well plates in 200 μL of complete RPMI1640 supplemented with 10% fetal calf serum (FCS; Sigma Aldrich), 100 U/mL penicillin, and 100 μg/mL streptomycin (Invitrogen). […] After 18 h incubation, the cell culture supernatants were collected. LPS (purified LPS, Invivogen, San Diego, Calif.) or MPLA (1 μg/mL synthetic MPLA, Invivogen, San Diego, Calif.) were used as positive controls. […] The AUC was calculated from BMDC dose-response curves using Prism 5 (GraphPad, San Diego). Each cytokine induction curve was first converted to a percent activity curve, and then the AUC of the percent activity curve was calculated. The process of converting to a percent activity curve allowed subtracting background and adjusting for plate-to-plate variation.

SMILES | human TLR4, values normalized to Cmpd 1 (human TLR4) | mouse TLR4, area under curve (AUC) values normalized to Cmpd 1 (mouse TLR4) | IL-6 activity in mBMDC (in words) [1]
O=C(CSc1nc2c([nH]c3ccccc32)c(=O)n1C1CCCCC1)NC1CCCCC1 [Compound 36, N-cyclohexyl-2-((3-cyclohexyl-4-oxo-4,5-dihydro-3H-pyrimido[5,4-b]indol-2-yl)thio)acetamide] | 40 | 56 | some loss of activity
CN(C(=O)CSc1nc2c3ccccc3n(C)c2c(=O)n1-c1ccccc1)C1CCCCC1 [Compound 43, N-cyclohexyl-N-methyl-2-((5-methyl-4-oxo-3-phenyl-4,5-dihydro-3H-pyrimido[5,4-b]indol-2-yl)thio)acetamide] | <1 | 1 | total loss of IL-6 activity
O=C(CSc1nc2c([nH]c3ccccc32)c(=O)n1-c1ccccc1)NC1CCCC1 [Compound 11, N-cyclopentyl-2-((4-oxo-3-phenyl-4,5-dihydro-3H-pyrimido[5,4-b]indol-2-yl)thio)acetamide] | 23 | 28 | 
O=C(CSc1nc2c([nH]c3ccccc32)c(=O)n1-c1ccc2ccccc2c1)NC1CCCCC1 [Compound 39, N-cyclohexyl-2-((3-(naphthalen-2-yl)-4-oxo-4,5-dihydro-3H-pyrimido[5,4-b]indol-2-yl)thio)acetamide] | 3 | 6 | total loss of activity
CCCCCCCCCCCCn1c2ccccc2c2nc(SCC(=O)NC3CCCCC3)n(-c3ccccc3)c(=O)c21 [Compound 50, N-cyclohexyl-2-((5-dodecyl-4-oxo-3-phenyl-4,5-dihydro-3H-pyrimido[5,4-b]indol-2-yl)thio)acetamide] | 10 | 4 | 
CCCCCn1c2ccccc2c2nc(SCC(=O)NC3CCCCC3)n(-c3ccccc3)c(=O)c21 [Compound 49, N-cyclohexyl-2-((4-oxo-5-pentyl-3-phenyl-4,5-dihydro-3H-pyrimido[5,4-b]indol-2-yl)thio)acetamide] | 11 | 6 | 
CCCCCCNC(=O)CSc1nc2c([nH]c3ccccc32)c(=O)n1-c1ccccc1 [Compound 25, N-hexyl-2-((4-oxo-3-phenyl-4,5-dihydro-3H-pyrimido[5,4-b]indol-2-yl)thio)acetamide] | 8 | 4 | 
NC(=O)Cn1c2ccccc2c2nc(SCC(=O)NC3CCCCC3)n(-c3ccccc3)c(=O)c21 [Compound 52, 2-((5-(2-amino-2-oxoethyl)-4-oxo-3-phenyl-4,5-dihydro-3H-pyrimido[5,4-b]indol-2-yl)thio)-N-cyclohexylacetamide] | 11 | 8 | 
CCCCCCCC/C=C\CCCCCCCC(=O)OCC(COP(=O)(O)OCCNC(=O)CSc1nc2c([nH]c3ccccc32)c(=O)n1-c1ccccc1)OC(=O)CCCCCCC/C=C\CCCCCCCC (stereo not drawn) [Compound 35, (Z)-3-((hydroxy(2-(2-((4-oxo-3-phenyl-4,5-dihydro-3H-pyrimido[5,4-b]indol-2-yl)thio)acetamido)ethoxy)phosphoryl)oxy)propane-1,2-diyl dioleate] | <1 | <1 | 
O=C(CSc1nc2c([nH]c3ccccc32)c(=O)n1-c1ccccc1)Nc1ccc2ccccc2c1 [Compound 18, N-(naphthalen-2-yl)-2-((4-oxo-3-phenyl-4,5-dihydro-3H-pyrimido[5,4-b]indol-2-yl)thio)acetamide] | 21 | 2 | 
O=C(CSc1nc2c([nH]c3ccccc32)c(=O)n1-c1ccccc1)Nc1ccc2cn[nH]c2c1 [Compound 20, N-(1H-indazol-6-yl)-2-((4-oxo-3-phenyl-4,5-dihydro-3H-pyrimido[5,4-b]indol-2-yl)thio)acetamide] | <1 | <1 | 

The next lines start with results.

human TLR4, values normalized to Cmpd 1 (human TLR4) | mouse TLR4, area under curve (AUC) values normalized to Cmpd 1 (mouse TLR4) | SMILES | IL-6 activity in mBMDC (in words) [1]
11 | 8 | CCC(CC)NC(=O)CSc1nc2c([nH]c3ccccc32)c(=O)n1-c1ccccc1 [Compound 31, 2-((4-oxo-3-phenyl-4,5-dihydro-3H-pyrimido[5,4-b]indol-2-yl)thio)-N-(pentan-3-yl)acetamide] | 
38 | 56 | CC(C)CCNC(=O)CSc1nc2c([nH]c3ccccc32)c(=O)n1-c1ccccc1 [Compound 27, N-isopentyl-2-((4-oxo-3-phenyl-4,5-dihydro-3H-pyrimido[5,4-b]indol-2-yl)thio)acetamide] | somewhat less active
21 | 24 | CC(C)CNC(=O)CSc1nc2c([nH]c3ccccc32)c(=O)n1-c1ccccc1 [Compound 26, N-isobutyl-2-((4-oxo-3-phenyl-4,5-dihydro-3H-pyrimido[5,4-b]indol-2-yl)thio)acetamide] | somewhat less active
23 | 42 | CCCCCNC(=O)CSc1nc2c([nH]c3ccccc32)c(=O)n1-c1ccccc1 [Compound 24, 2-((4-oxo-3-phenyl-4,5-dihydro-3H-pyrimido[5,4-b]indol-2-yl)thio)-N-pentylacetamide] | 
12 | 2 | O=C(CSc1nc2c([nH]c3ccccc32)c(=O)n1-c1ccccc1)Nc1nccs1 [Compound 21, 2-((4-oxo-3-phenyl-4,5-dihydro-3H-pyrimido[5,4-b]indol-2-yl)thio)-N-(thiazol-2-yl)acetamide] | 
6 | <1 | CC(C)(C)NC(=O)CSc1nc2c([nH]c3ccccc32)c(=O)n1-c1ccccc1 [Compound 32, N-(tert-butyl)-2-((4-oxo-3-phenyl-4,5-dihydro-3H-pyrimido[5,4-b]indol-2-yl)thio)acetamide] | 
27 | 5 | O=C(CSc1nc2c([nH]c3ccccc32)c(=O)n1-c1ccccc1)NCc1ccco1 [Compound 19, N-(furan-2-ylmethyl)-2-((4-oxo-3-phenyl-4,5-dihydro-3H-pyrimido[5,4-b]indol-2-yl)thio)acetamide] | 
8 | <1 | CCNC(=O)CSc1nc2c([nH]c3ccccc32)c(=O)n1-c1ccccc1 [Compound 22, N-ethyl-2-((4-oxo-3-phenyl-4,5-dihydro-3H-pyrimido[5,4-b]indol-2-yl)thio)acetamide] | 
<1 | <1 | O=C(CSc1nc2c([nH]c3ccccc32)c(=O)n1-c1ccccc1)NC1CCNCC1 [Compound 34, 2-((4-oxo-3-phenyl-4,5-dihydro-3H-pyrimido[5,4-b]indol-2-yl)thio)-N-(piperidin-4-yl)acetamide] | 
